Laboratory results as given in patent publication US20240140953A1, “INHIBITORS OF MENIN-MLL INTERACTION” (BIOMEA FUSION, INC., priority 2018, published 2024).
Where two headings read alike, the source gives them in different places.

Experiments:
MV4-11 = experiment: Long term proliferation, InCell (Table 3C), MV4-11; assay type: cell-based; details: Homo sapiens, MV4-11, InCell
Protocol: Compounds of invention are tested in the 5 suspension lines by 14-day long-term proliferation assay.
The compound is tested in 10-pt dose titration (client will determine the starting concentration and the dilution scheme) and the final DMSO concentration is kept at 0.2%.
Vehicle and media control are also included. All treatments are done in triplicate.
• 1) On Day 0, in a flat bottom 96-well plate, add 100 μL of cells per well at the densities optimized. • 2) Prepare compounds in DMSO at 500× final concentration. Dilute the compounds with DMSO at the dilution. • 3) Dilute the compounds in media at 3×final concentration. Add 50 μL of compound or DMSO at 3× final concentration to each well. Final volume in each well is 150 μL, and final concentration of DMSO is 0.2%. Also include 3 untreated control wells, by adding 50 μL of media alone. 4) Incubate plates for 96 hours. • 5) Count the cells using the Acumen, with capabilities for 96-well plates. Pipette cells up and down to mix in each well, and add desired volume of cells to a new flat bottom poly-D-lysine 96-well plate. Add Calcein AM at 1 μM final concentration. Let cells sit at RT for 10 mins followed by a quick spin to get cells settled on the bottom of the wells. Incubate the plate for additional 40 mins in the incubator. Take out the plate and read by Acumen. Calculate the cell numbers taken into account the dilution factors. • 6) Split the master plate. To do this take the total viable cell count calculated using step 5). Take the average of the replicates for each dose in order to be used in splitting the cells. • 7) Use a 96 well V-bottom plate to spin down the cells to remove old media and compound to split the cells. Based on the split ratio place the proper amount of media and cells into the V-bottom plate, and spin the plate at 1100 rpm for 5 minutes. • 8) Following the spin remove the media, careful not to disturb the cellpellet. • 9) Re-suspend pellet in 100 μL fresh media, and add to a new 96-well flat bottom plate. • 10) Add fresh compound, in the same manner as Step 3). • 11) Incubate plates for 72 hours. Repeat steps 5)-10) on Day 7. • 12) Incubate plates for 96 hours. Repeat Step 5)-10) on Day 11. • 13) Incubate 72 hours and repeat step 5) to take a final count. • 14) Data Analysis
To calculate growth for days 4, 7, 11, and 14: • Calculate the split factor for day 4 to 7, day 7 to 11, and day 11-14.

KG-1 = experiment: Long term proliferation, Cell Titer-Glo (Table 3B), KG-1; assay type: cell-based; details: Homo sapiens, KG-1, Cell Titer-Glo
[1] = 96 h, Day 4, read-out: Day 4 IC50
[2] = 264 h, Day 11, read-out: Day 11 IC50

IC50 (MV4-11; [1]): 500 nM | IC50 (MV4-11; [2]): 430 nM
SMILES: O=C(Nc1ccc(-c2cc3c(N4CCOCC4)ncnc3[nH]2)cc1)Nc1cc(-c2cccnc2)n[nH]1 [Compound 9, 1-{4-[4-(morpholin-4-yl)-7H-pyrrolo[2,3-d]pyrimidin-6-yl]phenyl}-3-[3-(pyridin-3-yl)-1H-pyrazol-5-yl]urea]
IC50 (KG-1; [1]): > 5000 nM | IC50 (KG-1; 168 h, Day 7, read-out: Day 7 IC50): 4790 nM | IC50 (KG-1; [2]): 1700 nM | IC50 (KG-1; 336 h, Day 14, read-out: Day 14 IC50): 1230 nM
